{"source": "patent US20140296567A1", "about": "“3-HYDROXYANTHRANILIC ACID (3-HAA) THERAPY FOR PREVENTION AND TREATMENT OF HYPERLIPIDEMIA AND ITS CARDIOVASULAR COMPLICATIONS” (priority 2011, published 2014)", "key": {"[1]": {"tested_on": "peritoneal macrophages from LdIr−/− mice", "assay": "OxLDL uptake by peritoneal macrophages (FITC-oxLDL, flow cytometry)", "type": "cell-based", "conditions": "macrophages from mice treated with 3-HAA 200 mg/Kg i.p. for 8 weeks vs PBS; 20 μg/ml FITC-oxLDL, 2 h, 37° C.; P<0.01", "method": "Peritoneal macrophages from LdIr−/− mice injected with 3-HAA (200 mg/Kg) or PBS (8 weeks treatment) were incubated with FITC-oxLDL at a concentration of 20 μg protein/ml for 2 h at 37° C. The uptake was quantified by flow cytometry. (A) Values given are MFI of FITC-oxLDL, means±SE of triplicate wells for each mouse (n=5 and 6, for 3-HAA or PBS respectively).\nLDL was labeled using a modification of a previously described method^32. Briefly, LDL (1.5-2 mg/ml) was dialyzed overnight against 500 mM NaHCO3 pH 9.5. Next, 50 μg of FITC (Sigma-Aldrich, St. Louis, Mo., USA), dissolved in DMSO (1 mg/ml), was added for each mg of protein in LDL, and incubated at room temperature for 2 hours. After incubation conjugates were separated from the free fluorochrome by gel filtration using a PD10 column (GE Healthcare, Uppsala, Sweden) and PBS for elution. FITC conjugation was evaluated by absorption spectroscopy against a FITC standard curve at 495 nm. Protein concentration was determined by Bradford assay (Biorad, Calif., USA). […] The extent of oxidation was evaluated by the TBARS assay, as described^33.\nTwenty four hours after the last injection of 3-HAA or PBS, peritoneal macrophages were isolated from LdIr−/− mice by peritoneal lavage with PBS. […] The cells were analyzed on a CyAn™ ADP flow cytometer (Dako, Glostrup, Denmark)."}, "[2]": {"tested_on": "LdIr−/− mice", "assay": "Plasma lipid analysis (total cholesterol, triglycerides; enzymatic colorimetric kits)", "type": "in vivo", "conditions": "3-HAA 200 mg/kg i.p., 8 weeks, high-fat diet, vs PBS; P<0.01", "method": "It was hypothesized that induction of protective immunity, with effects on metabolism and inflammation, could be achieved by injecting 3-HAA (200 mg/kg) intraperitoneally, 3 times per week, for 8 weeks. Twelve weeks old LdIr−/− mice were treated with 3-HAA, or PBS as control. The mice were fed a high-fat diet starting 2 days after the first injection until sacrifice, 8 weeks later with CO2.\nPlasma cholesterol and triglycerides were measured using enzymatic colorimetric kits according to the manufacturer's protocol. Dissected aortic arches were stained with Sudan IV en face and % lesion area of total vessel area was calculated. Additionally, the effect of 3-HAA on the uptake oxLDL was evaluated in cultures of peritoneal macrophages from 3-HAA or PBS treated mice.\n(§1) LdIr−/− mice were bred and housed in the Animal Experimentation Unit at the Center for Molecular Medicine, Karolinska University Hospital. The mice (n=7-10 per group) received 3 intra-peritoneal injections of PBS (200 μl) or 3-HAA (200 mg/Kg in PBS) per week for 6 weeks and 1 injection per week in the following two weeks (total 24 injections) and were sacrificed with CO2. […]\nPlasma cholesterol and triglycerides were measured using enzymatic colorimetric kits (Randox Lab. Ltd. Crumin, UK) according to the manufacturer's protocol."}, "[3]": {"tested_on": "LdIr−/− mice", "assay": "Lipoprotein profiles of plasma (size fractionation, cholesterol per fraction)", "type": "in vivo", "conditions": "3-HAA 200 mg/kg i.p., 8 weeks", "method": "(§2) LdIr−/− mice were bred and housed in the Animal Experimentation Unit at the Center for Molecular Medicine, Karolinska University Hospital. The mice (n=7-10 per group) received 3 intra-peritoneal injections of PBS (200 μl) or 3-HAA (200 mg/Kg in PBS) per week for 6 weeks and 1 injection per week in the following two weeks (total 24 injections) and were sacrificed with CO2. The mice were fed a high-fat diet (corn starch, cocoa butter, casein, glucose, sucrose, cellulose flour, minerals and vitamins; 17.2% protein, 21% fat (62.9% saturated, 33.9 unsaturated and 3.4% polyunsaturated), 0.15% cholesterol, 43% carbohydrates, 10% H2O and 3.9% cellulose fibers; R638 Lantmännen, Sweden) starting 2 days after the start of treatment.\nPlasma cholesterol lipoprotein profiles were determined using a modification of the method of Okazaki et al^34. Briefly, plasma samples (50 μl) from mice treated with 3-HAA or PBS were fractionated using an HR10/30 Superose 6 column (GE Healthcare, Uppsala, Sweden) and a Discovery BIO GFC-500 as pre-column (5 cm×7.8 i.d.; Supelco®, Sigma-Aldrich, PA, USA) coupled to Prominence UFLC system (Shimadzu, Kyoto, Japan) and equilibrated with Tris-buffered saline, pH 7.4. Fractions of 200 μl were collected using Foxy Jr® fraction collector (Teledyne Isco Inc, NE, USA) and total cholesterol was determined in each fraction using enzymatic colorimetric kit (Randox Lab. Ltd. Crumin, UK)."}, "[4]": {"tested_on": "LdIr−/− mice", "assay": "Lesion analysis, en face Sudan IV staining of the aortic arch", "type": "in vivo", "conditions": "3-HAA 200 mg/kg i.p., 8 weeks on high fat diet, vs PBS; P<0.001", "method": "Twelve weeks old LdIr−/− mice were treated with 3-HAA or PBS as control. The mice were sacrificed after 8 weeks on a Western diet. Dissected arches were stained with Sudan IV en face and % lesion area of total vessel area was calculated using Image J image analysis software (NIH, Bethesda, Md.). The additive area of all the plaques in a given aortic arch was calculated as a percent of the total surface area of the arch. (n=7 and 10, for 3-HAA or PBS respectively). ***) P<0.001.\nas §1\nEn face lipid accumulation was determined in the aortic arch from 3-HAA and PBS treated mice using Sudan IV staining. […] The additive area of all the plaques in a given aortic arch was calculated as a percent of the total surface area of the arch (not including branching vessels). Quantitation of plaques was performed using Image J software (NIH, Bethesda, USA)."}, "[5]": {"assay": "Body weight of treated mice", "type": "in vivo", "conditions": "3-HAA 200 mg/kg i.p., 8 weeks; data not shown", "method": "as §2"}}}
{"smiles": "Nc1c(O)cccc1C(=O)O", "note": "[3-HAA, 2-Amino-3-hydroxybenzoic acid]", "values": [{"measurement": "reduced uptake of FITC-oxLDL", "setting": "[1]", "result": "approx 79%"}, {"measurement": "reduction in plasma total cholesterol", "setting": "[2]", "result": "approx 50%"}, {"measurement": "reduction in plasma triglycerides", "setting": "[2]", "result": "approx 72%"}, {"measurement": "HDL levels", "setting": "[3]; high-fat diet, vs PBS", "result": "effectively raised HDL levels"}, {"measurement": "LDL/HDL ratio", "setting": "[3]; mean±SEM, PBS group 2.3±0.24, P<0.05", "result": "1.4±0.16"}, {"measurement": "VLDL/HDL ratio", "setting": "[3]; mean±SEM, PBS group 4.0±0.55, P<0.01", "result": "1.4±0.31"}, {"measurement": "reduction in atherosclerotic lesion area in en face preparations of the aortic arch", "setting": "[4]", "result": "approximately 90%"}, {"measurement": "effect on body weight", "setting": "[5]", "result": "no effect on body weight"}]}
